Source: ChEMBL document CHEMBL4706476, “Novel Tetrahydropyrido[4,3-d]pyrimidines as Potent Inhibitors of Chaperone Heat Shock Protein 90” (J Med Chem, 2016)
Values after ≈ are worked out from the molar mass of the structure shown.

Assays:
[1] = Distribution coefficient, logD of compound at pH 7.4; format: physicochemical; conditions: octanol/water
[2] = biological target: Heat shock protein HSP 90-alpha (Homo sapiens, UniProt P07900); experiment: Displacement of FITC-geldanamycin from N-terminal HSP90alpha (unknown origin) after 30 mins by fluorescence polarization competitive binding assay
[3] = Permeability of the compound at pH 7.4 by PAMPA; format: ADME; conditions: read-out: permeability
[4] = Intrinsic aqueous solubility of the compound; format: physicochemical
[5] = biological target: Endoplasmin (Homo sapiens, UniProt P14625); experiment: Displacement of FITC-geldanamycin from N-terminal GRP94 (unknown origin) after 30 mins by fluorescence polarization competitive binding assay
Chain of Endoplasmin (P14625 whole entry): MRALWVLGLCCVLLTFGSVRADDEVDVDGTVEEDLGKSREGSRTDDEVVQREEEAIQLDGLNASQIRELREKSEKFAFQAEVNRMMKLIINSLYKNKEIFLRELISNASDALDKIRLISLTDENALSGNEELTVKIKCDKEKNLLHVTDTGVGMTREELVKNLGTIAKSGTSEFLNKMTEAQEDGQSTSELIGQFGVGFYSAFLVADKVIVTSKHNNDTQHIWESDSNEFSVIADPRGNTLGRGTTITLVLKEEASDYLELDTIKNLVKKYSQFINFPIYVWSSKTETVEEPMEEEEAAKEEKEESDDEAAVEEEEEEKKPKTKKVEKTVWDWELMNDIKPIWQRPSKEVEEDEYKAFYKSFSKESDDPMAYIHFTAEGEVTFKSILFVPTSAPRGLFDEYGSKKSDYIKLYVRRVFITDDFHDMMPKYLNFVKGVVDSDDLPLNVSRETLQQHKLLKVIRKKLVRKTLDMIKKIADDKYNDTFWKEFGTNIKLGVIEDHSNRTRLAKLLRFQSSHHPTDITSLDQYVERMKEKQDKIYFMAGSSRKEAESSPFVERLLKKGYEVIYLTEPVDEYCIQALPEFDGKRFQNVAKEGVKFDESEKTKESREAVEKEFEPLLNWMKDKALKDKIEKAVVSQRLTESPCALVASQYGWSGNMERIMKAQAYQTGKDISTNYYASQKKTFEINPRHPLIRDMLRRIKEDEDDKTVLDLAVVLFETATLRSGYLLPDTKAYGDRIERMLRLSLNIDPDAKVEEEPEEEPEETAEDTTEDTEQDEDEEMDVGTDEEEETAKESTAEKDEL

[6] = Selectivity ratio of IC50 for inhibition of FITC-geldanamycin binding to N-terminal GRP94 (unknown origin) to IC50 for inhibition of FITC-geldanamycin binding to N-terminal HSP90alpha (unknown origin)
[7] = test system: MDA-MB-231; experiment: Antiproliferative activity against human MDA-MB-231 assessed as reduction in cell viability incubated for 72 hrs by MTT assay; format: functional, cell-based; conditions: MDA-MB-231, 72 h
[8] = test system: MDA-MB-468; experiment: Antiproliferative activity against human MDA-MB-468 assessed as reduction in cell viability incubated for 72 hrs by MTT assay; format: functional, cell-based; conditions: MDA-MB-468, 72 h
[9] = test system: SK-BR-3; experiment: Antiproliferative activity against human SK-BR-3 assessed as reduction in cell viability incubated for 72 hrs by MTT assay; format: functional, cell-based; conditions: SK-BR-3, 72 h
[10] = test system: T47D; experiment: Antiproliferative activity against human T47D assessed as reduction in cell viability incubated for 72 hrs by MTT assay; format: functional, cell-based
[11] = test system: BT-474; experiment: Antiproliferative activity against human BT-474 assessed as reduction in cell viability incubated for 72 hrs by MTT assay; format: functional, cell-based; conditions: BT-474, 72 h
[12] = test system: U2OS; experiment: Antiproliferative activity against human U2OS assessed as reduction in cell viability incubated for 72 hrs by MTT assay; format: functional, cell-based
[13] = test system: MKN-28; experiment: Antiproliferative activity against human MKN-28 assessed as reduction in cell viability incubated for 72 hrs by MTT assay; format: functional, cell-based; conditions: MKN-28, 72 h
[14] = test system: A549; experiment: Antiproliferative activity against human A549 assessed as reduction in cell viability incubated for 72 hrs by MTT assay; format: functional, cell-based; conditions: A549, 72 h
[15] = test system: HepG2; experiment: Antiproliferative activity against human HepG2 assessed as reduction in cell viability incubated for 72 hrs by MTT assay; format: functional, cell-based; conditions: HepG2, 72 h
[16] = test system: K562; experiment: Antiproliferative activity against human K562 assessed as reduction in cell viability incubated for 72 hrs by MTT assay; format: functional, cell-based; conditions: K562, 72 h
[17] = test system: MV4-11; experiment: Antiproliferative activity against human MV4-11 assessed as reduction in cell viability incubated for 72 hrs by MTT assay; format: functional, cell-based; conditions: MV4-11, 72 h
[18] = test system: L02; experiment: Cytotoxicity against human L02 cells assessed as reduction in cell viability incubated for 72 hrs by MTT assay; format: cell-based; conditions: L02, 72 h
[19] = biological target: T1, Heat shock protein HSP90 (Homo sapiens) (UniProt P07900+P08238); experiment: Inhibition of HSP90 in human HCT-116 cells assessed as reduction in AKT protein expression after 24 hrs by Western blot analysis; format: cell-based; conditions: dose 0.01-3 µM
[20] = biological target: T1, Heat shock protein HSP90 (Homo sapiens); experiment: Inhibition of HSP90 in human HCT-116 cells assessed as reduction in Erk protein expression after 24 hrs by Western blot analysis; format: cell-based; conditions: dose 0.01-3 µM
[21] = biological target: T1, Heat shock protein HSP90 (Homo sapiens); experiment: Inhibition of HSP90 in human HCT-116 cells assessed as reduction in phosphorylated Erk after 24 hrs by Western blot analysis; format: cell-based; conditions: dose 0.01-3 µM
[22] = biological target: T1, Heat shock protein HSP90 (Homo sapiens); experiment: Inhibition of HSP90 in human HCT-116 cells assessed as induction of HSP70 expression after 24 hrs by Western blot analysis; format: cell-based; conditions: dose 0.01-3 µM
[23] = Half life in human liver microsomes at 1 uM preincubated for 5 mins followed by NADPH addition and measured up to 120 mins by LC-MS/MS analysis; format: ADME, Microsome; conditions: 2 h, time <=125 min
[24] = Intrinsic clearance in human liver microsomes at 1 uM preincubated for 5 mins followed by NADPH addition and measured up to 120 mins by LC-MS/MS analysis; format: ADME, Microsome; conditions: 2 h, time <=125 min
[25] = Metabolic stability in human liver microsomes assessed as parent compound remaining at 1 uM preincubated for 5 mins followed by NADPH addition and measured up to 120 mins by LC-MS/MS analysis; format: ADME, Microsome; conditions: 2 h, time <=125 min
[26] = test system: HCT-116; experiment: cells; conditions: Homo sapiens, HCT-116, 72 h
Description: Antiproliferative activity against human HCT-116 cells assessed as reduction in cell viability incubated for 72 hrs by MTT assay

[27] = test system: MCF7; experiment: cells; conditions: Homo sapiens, MCF7, 72 h
[28] = test system: HCT-116; experiment: Antitumor activity against human HCT-116 cells xenografted in nude mouse assessed as reduction in relative tumor volume by measuring T/C ratio at 40 mg/kg, ip administered every other day for 16 days and monitored every 3 days; format: functional; conditions: time 16 day
[29] = test system: HCT-116; experiment: Antitumor activity against human HCT-116 cells xenografted in nude mouse assessed as reduction in relative tumor volume by measuring T/C ratio at 60 mg/kg, ip administered every other day for 16 days and monitored every 3 days; format: functional; conditions: time 16 day
[30] = Apparent volume of distribution in rat at 50 mg/kg, po measured upto 24 hrs by LC-MS/MS analysis; format: ADME, organism-based; conditions: in vivo
[31] = Apparent volume of distribution in rat at 10 mg/kg, iv measured upto 24 hrs by LC-MS/MS analysis; format: ADME, organism-based; conditions: in vivo, read-out: Vz
[32] = Toxicity in nude mouse xenografted with human HCT-116 cells assessed as change in body weight at 40 to 60 mg/kg, ip administered every other day for 16 days and monitored every 3 days; conditions: in vivo, 384 h
[33] = biological target: CYP3A4 (Homo sapiens, UniProt P08684); experiment: Inhibition of CYP3A4 in human liver microsomes at 10 uM using midazolam as substrate preincubated for 5 mins followed by NADPH addition and measured after 20 mins by LC-MS/MS analysis relative to control; format: ADME; conditions: probe midazolam, time 25 min
Chain of CYP3A4 (P08684 whole entry): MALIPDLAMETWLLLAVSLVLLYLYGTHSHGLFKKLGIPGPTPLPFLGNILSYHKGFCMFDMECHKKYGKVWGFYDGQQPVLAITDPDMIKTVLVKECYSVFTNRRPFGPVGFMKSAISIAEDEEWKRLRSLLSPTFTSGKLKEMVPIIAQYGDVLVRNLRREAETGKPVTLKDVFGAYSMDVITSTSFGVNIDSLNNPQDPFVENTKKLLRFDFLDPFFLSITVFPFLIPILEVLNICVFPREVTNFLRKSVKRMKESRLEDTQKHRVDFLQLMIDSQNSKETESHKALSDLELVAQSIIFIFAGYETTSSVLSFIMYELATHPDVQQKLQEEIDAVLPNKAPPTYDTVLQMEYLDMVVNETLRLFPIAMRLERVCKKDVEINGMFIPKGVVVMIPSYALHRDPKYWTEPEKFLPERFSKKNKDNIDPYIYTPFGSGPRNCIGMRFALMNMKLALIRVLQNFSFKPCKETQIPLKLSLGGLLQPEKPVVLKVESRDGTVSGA

[34] = biological target: CYP1A2 (Homo sapiens, UniProt P05177); experiment: Inhibition of CYP1A2 in human liver microsomes at 10 uM using phenacetin as substrate preincubated for 5 mins followed by NADPH addition and measured after 20 mins by LC-MS/MS analysis relative to control; format: ADME; conditions: probe phenacetin, time 25 min
Chain of CYP1A2 (P05177 whole entry): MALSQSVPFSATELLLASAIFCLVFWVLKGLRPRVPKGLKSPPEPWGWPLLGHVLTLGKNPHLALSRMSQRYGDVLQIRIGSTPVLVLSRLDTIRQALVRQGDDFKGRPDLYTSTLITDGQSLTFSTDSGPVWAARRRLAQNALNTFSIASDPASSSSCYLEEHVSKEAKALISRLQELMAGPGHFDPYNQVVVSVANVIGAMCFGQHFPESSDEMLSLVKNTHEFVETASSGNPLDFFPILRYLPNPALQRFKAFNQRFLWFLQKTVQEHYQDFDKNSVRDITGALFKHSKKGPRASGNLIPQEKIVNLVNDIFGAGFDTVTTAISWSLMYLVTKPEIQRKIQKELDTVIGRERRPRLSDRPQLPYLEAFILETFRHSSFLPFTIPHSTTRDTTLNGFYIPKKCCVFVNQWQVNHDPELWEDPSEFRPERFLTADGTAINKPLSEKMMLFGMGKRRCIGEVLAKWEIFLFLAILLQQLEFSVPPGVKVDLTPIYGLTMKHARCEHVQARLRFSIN

**Q.** Which logD [1] does the source give for CCCOc1nc(OCCOC)nc2c1CN(C(=O)c1cc(C(C)C)c(O)cc1O)CC2 here?
**A.** 3.59

**Q.** And the IC50 [2]?
**A.** 36 nM

**Q.** What about the Papp [3] of the same molecule?
**A.** 87.7 ×10⁻⁶ cm/s

**Q.** And the solubility [4]?
**A.** 73.6 µg/mL (≈ 165 µM)

**Q.** And the IC50 [5]?
**A.** 929 nM

**Q.** And the Ratio IC50 [6]?
**A.** 25.8

**Q.** And the IC50 [7]?
**A.** 122 nM

**Q.** What about the IC50 [8] of the same molecule?
**A.** 139 nM

**Q.** And the IC50 [9]?
**A.** 220 nM

**Q.** And the IC50 [10]?
**A.** 178 nM

**Q.** What about the IC50 [11] of the same molecule?
**A.** 118 nM

**Q.** What about the IC50 [12] of the same molecule?
**A.** 171 nM

**Q.** What about the IC50 [13] of the same molecule?
**A.** 407 nM

**Q.** What about the IC50 [14] of the same molecule?
**A.** 60 nM

**Q.** And the IC50 [15]?
**A.** 222 nM

**Q.** And the IC50 [16]?
**A.** 150 nM

**Q.** What about the IC50 [17] of the same molecule?
**A.** 18 nM

**Q.** What about the IC50 [18] of the same molecule?
**A.** 30.9 µM

**Q.** And the inhibition [19]?
**A.** Dose-dependent effect

**Q.** What about the inhibition [20] of the same molecule?
**A.** Dose-dependent effect

**Q.** And the inhibition [21]?
**A.** Dose-dependent effect

**Q.** What about the inhibition [22] of the same molecule?
**A.** Dose-dependent effect

**Q.** And the t1/2 [23]?
**A.** 69 min

**Q.** And the CLint [24]?
**A.** 13.7 mL/min/kg

**Q.** What about the Stabilty [25] of the same molecule?
**A.** 59.5%

**Q.** And the IC50 [26]?
**A.** 120 nM

**Q.** And the IC50 [27]?
**A.** 40 nM

**Q.** For CCNc1nc(OCCOC)nc2c1CN(C(=O)c1cc(C(C)C)c(O)cc1O)CC2.Cl, which T/C [28] is on record?
**A.** 45%

**Q.** What about the T/C [29] of the same molecule?
**A.** 23%

**Q.** And the Vz [30]?
**A.** 1620.19 L/kg

**Q.** What about the Vd [31] of the same molecule?
**A.** 29.6 L/kg

**Q.** And the Activity [32]?
**A.** Non-Toxic

**Q.** Which inhibition at 20 min, 10 µM [33] does the source give for CC(=O)N1CCN(c2ccc(OCC3COC(Cn4ccnc4)(c4ccc(Cl)cc4Cl)O3)cc2)CC1 (centres undefined) [KETOCONAZOLE] here?
**A.** 72%

**Q.** For O=c1cc(-c2ccccc2)oc2c1ccc1ccccc12 [ALPHA-NAPHTHOFLAVONE], which inhibition at 20 min, 10 µM [34] is on record?
**A.** 76%
